Experimental findings from patent publication US20230220047A1, “PEPTIDES FOR TREATMENT OF SEPSIS AND CANCER” (NORWEGIAN UNIVERSITY OF SCIENCE AND TECHNOLOGY (NTNU), priority 2020, published 2023) are described below.

For one assay, the target named is T1, SLAMF1 (Homo sapiens, UniProt Q13291).
T1 sequence (Q13291 21-335): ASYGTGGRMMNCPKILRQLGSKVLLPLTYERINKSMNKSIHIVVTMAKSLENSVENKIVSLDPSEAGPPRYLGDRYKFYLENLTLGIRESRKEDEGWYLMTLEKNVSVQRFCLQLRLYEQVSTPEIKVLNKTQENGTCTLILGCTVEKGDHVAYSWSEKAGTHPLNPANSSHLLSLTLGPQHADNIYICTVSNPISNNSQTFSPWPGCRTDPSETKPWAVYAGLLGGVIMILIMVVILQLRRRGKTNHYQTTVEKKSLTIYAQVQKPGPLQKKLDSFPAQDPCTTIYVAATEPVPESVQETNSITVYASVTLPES
The experiment in a line: Co-precipitation of SLAMF1 with peptide. It is filed as binding. The note with it: data not shown. The text has this: The striking effect of the P7 peptide on bacterial uptake could explain the blockade of TLR4-mediated IFNβ secretion by this peptide, because activation of IFNβ expression can only be initiated from the endosomal compartment. This effect could also be mediated by peptide interaction with Rab11 FIP2 (data not shown), which is a crucial regulator of TRAM trafficking and the uptake of both Gram-negative and Gram-positive bacteria by macrophages (Skjesol, supra). […] P7 is derived from a C-terminal β-sheet, and so could complex with the SLAMF1 N-terminal beta sheet. Given the effect of P7-Pen on bacterial uptake, it could be used to block bacterial uptake by monocytes, thus making bacteria more exposed to antibiotic treatment.

Another assay relates to TLR8. The experiment in a line: Primary human macrophages stimulated with CL075: cytokine mRNA, Western blot, IRAK precipitations. Format: cell-based. Particulars: CL075-treated primary human macrophages. The procedure: (§1) Primary human macrophages (PBMC derived, differentiated in media with 10% human serum and M-CSF 20 ng/ml, 7 days) were stimulated with K12 LPS (100 ng/ml), FSL-1 (100 ng/ml) or CL075 (3 μg/ml). […] (B) qPCR for mRNA expression of IFNβ, IL-6, TNF and IL-1β, average for three biological replicates, error bars ±SD.
(§2) Primary human macrophages (7 days) were pre-treated with Pen or P7-Pen (15 μM) for 30 min before addition of LPS (100 ng/ml), FSL-1 (100 ng/ml) or CL075 (3 μg/ml). A: Protein expression in lysates for input control. B,C: Precipitations were performed using sheep anti-IRAK4 (B) or anti-IRAK1 (C) polyclonal antibodies covalently bound to magnetic beads.
In general terms: In western blotting, separated proteins are transferred to a membrane and probed.

For assay [1], the system named is TLR4. Kind of assay: Western blot of LPS signalling in murine immortalized BMDMs. Format: cell-based, mouse. Particulars: murine macrophages, 10 μM, LPS. The procedure:
Western blot analysis of lysates from cells pretreated with media containing controls (water, DMSO or 10 μM control peptide C3-Pen) or P7-Pen peptide for 30 min before stimulation with LPS (K12 LPS, 100 ng/ml) for designated time periods.
Protein pellets were dissolved by heating protein pellets for 10 min at 95° C. in buffer containing 4 M urea, 1 SDS (Sigma) and NuPAGE® LDS Sample Buffer (4×) (Thermo Fisher Scientific). Otherwise, lysates were made using 1× RIPA lysis buffer (150 mM NaCl, 50 mM TrisHCl (pH 7.5), 1% Triton X100, 5 mM EDTA, protease inhibitors, phosphatase inhibitors). For Western blot analysis we used pre-cast protein gels NuPAGE™ Novex™ and iBlot Transfer Stacks iBlot Gel Transfer Device (Thermo Fisher Scientific). Proteins were transferred to the membrane by dry-blotting using iBlot® 2 NC Regular/Mini Stacks (Life Technologies) in the iBlot 2 Dry Blotting System (Life Technologies). After secondary antibody incubation, membranes were washed and incubated with HRP substrate solution (SuperSignal™ West Femto Maximum Sensitivity Substrate (Thermo Fisher Scientific)). Images were taken using Odyssey® Fc (LI-CORE). Quantification graphs were generated by the analysis of signal intensities for protein bands (protein of interest and endogenous loading control—β-tubulin from the same membrane) using Odyssey software (LI-CORE). Data were normalised to the expression levels of β-tubulin and presented as a relative fold change to the control sample.
In addition, pre-treatment of murine macrophages with P7-Pen inhibited LPS-mediated phosphorylation of TBK1 and IκBα, and decreased phosphorylation of p38 MAPK (FIG. 23).

In the next assay the target is T2, SLAMF1-TRAM interaction (Homo sapiens, UniProt Q86XR7).
T2 construct: expressed in transfected cells; host or cells: HEK-293T
T2 sequence (Q86XR7 whole entry): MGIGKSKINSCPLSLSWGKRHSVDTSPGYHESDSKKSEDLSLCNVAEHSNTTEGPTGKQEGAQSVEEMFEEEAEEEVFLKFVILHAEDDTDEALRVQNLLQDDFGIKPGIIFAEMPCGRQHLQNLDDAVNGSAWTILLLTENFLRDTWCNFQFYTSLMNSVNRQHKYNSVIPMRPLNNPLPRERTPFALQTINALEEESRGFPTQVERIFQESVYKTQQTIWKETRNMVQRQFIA
The experiment in a line: Co-precipitation of SLAMF1 and TRAM^Flag in the presence of ECFP-tagged peptides. Format: binding. Particulars: N-terminal ECFP-tagged peptides, HEK-293T lysates, anti-Flag IP. The text has this: (A) Western blot analysis of SLAMF1 and TRAM^Flag co-precipitated in the presence of CFP-tagged peptides. TRAM^Flag was precipitated from cell lysates on agarose beads and distributed across 15 tubes. […] Unbound proteins/peptides were removed by a washing step, and pecipitates analysed by WB (anti-Flag IPs). Reduced SLAMF1 binding to TRAM indicates inhibition of the TRAM/SLAMF1 interaction by the peptide. (B) Sequences of the peptides that were expressed as ECFP-tagged proteins (N-terminal ECFP). Peptides 4 and 5 are not shown and were not pursued.
HEK293T cells expressing Flag-tagged proteins were lysed using 1×lysis buffer (150 mM NaCl, 50 mM TrisHCl (pH 8.0), 1 mM EDTA, 1% NP40), supplemented with EDTA-free Complete Mini protease Inhibitor Cocktail Tablets and PhosSTOP phosphatase inhibitor cocktail from Roche, 50 mM NaF and 2 mM […] (Sigma). IPs were carried out by rotation of cell lysates at 4° C. for 2 h with anti-flag (M2) agarose (Sigma). Beads were washed 5 times with lysis buffer and heated for 5 min with 1×NuPAGE® LDS Sample Buffer (Thermo Fisher Scientific) before analysis of precipitates by Western blotting. […]
Inhibition of the TRAM-SLAMF1 interaction using SLAMF1-derived peptides was tested. For the first line of experiments, SLAMF1-derived peptides were co-expressed as N-terminal ECFP-tagged proteins together with SLAMF1 and TRAM^FLAG constructs in HEK-293T cells.

Another assay deals with TLR2. Kind of assay: Primary human macrophages stimulated with FSL-1: cytokine mRNA, Western blot, IRAK precipitations. It is filed as cell-based. The procedure:
as §1, §2
(§3) The effect of P7-Pen on TLR2-mediated pro-inflammatory cytokine expression was investigated.

The test system of assay [2] is TLR4. The experiment in a line: Primary human macrophages stimulated with LPS: cytokine mRNA and p38 MAPK phosphorylation. It is filed as cell-based. Particulars: LPS-treated primary human macrophages. The procedure: as §1, §3

Consider “P7: SEQ ID NO: 1; amino acids 324-333 of SLAMF1 with a proline to threonine substitution at position 10 (ITVYASVTLT; P7) [Peptide P7]”, for which, in the assay with SLAMF1, the “co-precipitation of SLAMF1” value is given as “could also co-precipitate”. The figures for the “phosphorylation of p38 MAPK and IL-6, TNF and IL-1β expression” value in the assay with TLR8, in the assay on TLR2 (FSL-1-treated primary human macrophages) and in the assay with TLR4 [2] were “not”, “not” and “fully inhibited”, respectively. Besides, in the assay on TLR4 [1], the “phosphorylation of TAK1 kinase and IRAK1 ubiquitination/phosphorylation” value is given as “interfered”. The “inhibitory effect on SLAMF1-TRAM co-precipitation” value in the assay with SLAMF1-TRAM interaction is “highest efficacy”. Also, the “phosphorylation of p38 MAPK, posttranslational modifications of IRAK1, recruitment of IRAK1 and 4 to MyD88” value in the assay with TLR2 (TLR2-stimulated cells, 15 μM, FSL-1 100 ng/ml) is given as “does not inhibit”.
